Here are results for one compound from patent US20060035901A1, “Methotrexate derivatives useful for treating cancer and arthritis” (Serenex, Inc., priority 2004, published 2006).

Assay [1] relates to SR (lymphoma, pleural effusion). In words: Cell proliferation assay (WST-1), SR. Format: cell-based. The note with it: SR cells. The procedure: (§1) A panel of cancer cell lines was obtained from the DCTP Tumor Repository, National Cancer Institute (Fredrick, Md.) or ATCC (Rockville, Md.). Cell cultures were maintained in Hyclone RPMI 1640 medium (Logan, Utah) supplemented with 10% fetal bovine serum and 20 mM HEPES buffer, pH 7.2, at 37° C., 5% CO2 atmosphere. Cultures were maintained at sub-confluent densities.
(§2) For proliferation assays, cells were seeded with the appropriate medium into 96 well plates at 1,000-2,000 cells per well, depending on cell line, and were incubated overnight. The following day, an amount of test compound, DMSO solution (negative control), or Actinomycin D (positive control) was added to the appropriate wells as 10× concentrated stocks prepared in phosphate buffered saline. The cell plates were then incubated for an additional 2-5 days, dependent on cell line, to allow for proliferation to occur. […] Optical density was determined for each well a 450 nm using a Tecan GniosPro plate reader (RTP, NC). The percentage of cell growth was then determined by comparing the cell growth in the presence of test compounds to the DMSO vehicle control treated cells (100% growth) and […] Actinomycin D treated cells (0% growth).
On the technique in general: Tetrazolium assays rely on reduction of a dye to a coloured formazan, in cell work by metabolically active cells.

In assay [2] the test system is HT29 (colon; adenocarcinoma, GRIII). In words: Cell proliferation assay (WST-1), HT29. Format: cell-based. The note with it: HT29 cells. On the procedure: as §1, §2
In the next assay the target is EGFR (Homo sapiens, UniProt P00533). In words: Elution of EGFR from ATP-Sepharose column by compound (Proteome Mining), IC50 estimate. Format: binding. The note with it: estimated from percent of protein eluted from ATP-Sepharose column, gel densitometry; read-out: Approximate IC50 for EGFR. On the procedure: A proteome containing a known quantity of Her2, EGFR, and B-Raf was run over an ATP-Sepharose™ column in order to bind all purine-binding proteins. See, WO 00/63694 and U.S. Provisional Application No. 60/453,697 filed Jan. 22, 2003, each of which is incorporated by reference in its entirety. The ATP-Sepharose™ was washed several times, and then eluted with the compound of Formula III. The experiment was run in duplicate at concentrations of 20 μM, 100 μM, and 500 μM of the compound of Formula III. The eluted fractions were run on a 1-dimensional SDS polyacrylamide gel. Gels were stained with a fluorescent stain such as sypro ruby (a highly sensitive fluorescent protein stain that can readily detect less than 1 fmol of total protein, i.e., less than 0.04 ng for a 40 kDa protein). The gels were imaged using a standard flat bed gel imager and the amount of protein estimated by densiometry. The percent of protein eluted from the column at each concentration was determined and IC50 values were calculated from these estimates. Where necessary, the eluted proteins were cut out of the gel, and identified using mass spectral techniques.
Sequence of EGFR (P00533 25-1210, species assumed): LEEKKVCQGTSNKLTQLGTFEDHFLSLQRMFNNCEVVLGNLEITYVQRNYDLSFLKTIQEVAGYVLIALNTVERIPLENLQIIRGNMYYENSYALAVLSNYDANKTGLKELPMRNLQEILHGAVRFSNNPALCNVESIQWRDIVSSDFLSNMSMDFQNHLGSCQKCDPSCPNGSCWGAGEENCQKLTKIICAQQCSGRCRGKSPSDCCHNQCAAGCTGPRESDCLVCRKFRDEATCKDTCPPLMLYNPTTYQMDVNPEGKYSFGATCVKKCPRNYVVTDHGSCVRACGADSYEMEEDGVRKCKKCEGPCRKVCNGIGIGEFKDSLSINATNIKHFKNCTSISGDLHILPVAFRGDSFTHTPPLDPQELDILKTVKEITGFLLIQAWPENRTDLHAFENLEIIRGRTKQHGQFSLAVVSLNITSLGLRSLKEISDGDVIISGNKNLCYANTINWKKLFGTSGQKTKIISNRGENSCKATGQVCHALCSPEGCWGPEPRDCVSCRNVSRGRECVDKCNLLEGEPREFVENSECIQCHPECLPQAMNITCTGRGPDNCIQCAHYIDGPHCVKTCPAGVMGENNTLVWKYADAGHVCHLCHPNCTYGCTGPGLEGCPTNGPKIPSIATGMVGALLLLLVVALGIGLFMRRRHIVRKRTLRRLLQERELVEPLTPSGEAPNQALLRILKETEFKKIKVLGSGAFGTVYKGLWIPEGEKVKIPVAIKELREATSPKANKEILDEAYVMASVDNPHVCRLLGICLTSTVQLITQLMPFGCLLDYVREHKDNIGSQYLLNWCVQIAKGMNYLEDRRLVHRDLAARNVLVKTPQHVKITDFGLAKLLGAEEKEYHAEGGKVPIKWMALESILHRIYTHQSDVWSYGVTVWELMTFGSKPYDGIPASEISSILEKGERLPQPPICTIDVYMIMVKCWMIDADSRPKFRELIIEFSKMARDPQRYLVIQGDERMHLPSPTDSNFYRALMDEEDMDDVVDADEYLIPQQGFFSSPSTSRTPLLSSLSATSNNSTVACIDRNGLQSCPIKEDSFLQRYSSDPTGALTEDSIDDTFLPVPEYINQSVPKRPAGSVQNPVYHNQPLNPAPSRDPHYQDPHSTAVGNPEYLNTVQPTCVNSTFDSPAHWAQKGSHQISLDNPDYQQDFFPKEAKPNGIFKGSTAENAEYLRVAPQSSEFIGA
These steps were repeated with each of the compounds of Formulas IV-X, MTX, and the c series derivative.

For another assay, the system named is SkBr (breast cancer). In words: Cell proliferation assay (WST-1), SkBr. Format: cell-based. Conditions: SkBr cells. On the procedure: as §1, §2
The test system of assay [3] is Human umbilical vein endothelial cells (HUVEC). Briefly: Cell proliferation assay (WST-1, Cyquant DNA), HUVEC. Format: cell-based. The procedure: Human umbilical vein endothelial cells (HUVEC) were purchased from Clonetics, a division of Cabrex (Walkersville, Md.). Cultures were established from cryopreserved stocks using Clonetics EGM-2 medium supplemented with 20 mM HEPES, pH 7.2, at 37° C., 5% CO2 atmosphere.
as §2, with “saline.” for “saline. The cell plates were then incubated for an additional 2-5 days, dependent on cell line, to allow for proliferation to occur.”
(§3) Immediately after the WST-1 determination, the medium was removed from the NCI-H460 and HUVEC cell lines, and the plates stored at −80° C. Using these assay plates, relative DNA amounts in each well were determined using the Cyquant DNA assay kit from […] (Eugene, Oreg.) following the manufacturer's directions. […]

The subject of assay [4] is T47D (mammary; carcinoma). In words: Cell proliferation assay (WST-1), T47D. Format: cell-based. Conditions: T47D cells. On the procedure: as §1, §2
The test system of assay [5] is SF-268 (central nervous system; anaplastic astrocytoma). Briefly: Cell proliferation assay (WST-1), SF-268. Format: cell-based. Conditions: SF-268 cells. The procedure: as §1, §2
Assay [6] deals with OVCAR8 (ovarian; adenocarcinoma). Briefly: Cell proliferation assay (WST-1), OVCAR8. Format: cell-based. The note with it: OVCAR8 cells. On the procedure:
as §1, §2

For assay [7], the system named is Lncap (prostate; carcinoma). Briefly: Cell proliferation assay (WST-1), Lncap. Format: cell-based. Conditions: Lncap cells. The procedure:
as §1, §2

In assay [8] the test system is OVCAR-3 (ovarian; adenocarcinoma). Briefly: Cell proliferation assay (WST-1), OVCAR-3. Format: cell-based. The note with it: OVCAR-3 cells. The procedure: as §1, §2
Assay [9] has as its system NCI-H460 (lung; large cell carcinoma). In words: Cell proliferation assay (WST-1, Cyquant DNA), NCI-H460. Format: cell-based. The note with it: NCI-H460 cells. On the procedure: as §1
as §2, with “saline.” for “saline. The cell plates were then incubated for an additional 2-5 days, dependent on cell line, to allow for proliferation to occur.”
as §3

The test system of another assay is BT474 (breast cancer). Briefly: Cell proliferation assay (WST-1), BT474. Format: cell-based. The note with it: BT474 cells. The procedure: as §1, §2
The subject of assay [10] is SK-Mel 5 (skin; melanoma). In words: Cell proliferation assay (WST-1), SK-Mel 5. Format: cell-based. Conditions: SK-Mel 5 cells. On the procedure:
as §1, §2

pIC50: −log10 of the molar value. Bounds are passed on as bounds.

Consider `C#CCN(Cc1cnc2nc(N)nc(N)c2n1)c1ccc(C(=O)NC(CCC(=O)O)C(=O)O)cc1C` (stereo not shown) [Formula III, 2-{4-[(2,4-diamino-pteridin-6-ylmethyl)-prop-2-ynyl-amino]-3-methyl-benzoylamino}-pentanedioic acid], for which the “Fold Improvement in Cell Proliferation IC50 Compared to MTX” value in [1] is recorded as more than 4 fold; in assay [2], more than 6 fold; in the assay with SkBr (breast cancer) it was more than 2 fold; in assay [3] it was more than 2 fold; in assay [4], 3 fold; in [5] it was more than 4 fold. The “Fold Improvement in Cell Proliferation IC50 Compared to MTX” value in assay [6] is reported as more than 2 fold; in assay [7] it was 7 fold; in assay [8], more than 3 fold; in [9] it was more than 1 fold; in the assay on BT474 (breast cancer), more than 5 fold; in [10], more than 4 fold. In addition, the pIC50 at EGFR is 5.30.

The term pIC50 denotes the IC50 on a negative log10 scale, so that one unit is a factor of ten.
